Laboratory results from publication PMC7279038, “Antioxidant and Neuroprotective Effects Induced by Cannabidiol and Cannabigerol in Rat CTX-TNA2 Astrocytes and Isolated Cortexes” (International Journal of Molecular Sciences, 2020).

Key:
histone H2B = experiment: Untargeted proteomic analysis of cortexes, H2B; design: species or system rat; conditions: CBD 1000 nM, CBG 1 nM
Method: (§1) Sprague–Dawley rats (200–250 g) were sacrificed by CO2 inhalation (Italian Health Ministry authorization N. F4738.N.XTQ, delivered on 11th November 2018) and isolated prefrontal cortex specimens were immediately explanted and incubated in thermostatic shaking bath at 37 °C for 1 h (incubation period), in Krebs–Ringer buffer at the following K^+ concentrations:
(§2) Cortexes were stimulated with CBD (1000 nM) and CBD (1 nM). Afterwards, specimens were homogenized in perchloric acid solution (0.05 M) for the extraction and quantification of nitrites, via the aforementioned colorimetric Griess assay, and serotonin (5-HT), 5-hydroxyindoleacetic (5HIIA),3-hydroxykinurenine (3-HK) and kinurenic acid (KA) (ng/mg wet tissue) via high performance liquid chromatography analysis. Additionally, an untargeted proteomic analysis was carried out on the cortex homogenate. The analytical protocols for 5-HT, 5HIIA, 3-HK, KA and protein level determinations are described below. […]
(§3) After protein quantification, a volume corresponding to 50 μg of proteins was loaded onto a Nanosep 10-kDa-cutoff filter (Pall Corporation, Michigan, USA) and digested according to the protocol we routinely use in our laboratory, adapted from Distler et al. Briefly, the sample was washed twice with 200 μL urea buffer (8M urea, 100 mM Tris pH 8.5 in milliQ water) to remove the detergents present in the lysis buffer. […]

5-HT receptor (5-HT1A) = conditions: cited from earlier work
synaptotagmin-1 (Syt 1) = experiment: Untargeted proteomic analysis of cortexes, Syt 1; design: species or system rat; conditions: CBD 1000 nM, CBG 1 nM
Method: as §1, §2, §3

[1] = target: T1, AChE (acetylcholinesterase) (Electrophorus electricus, UniProt O42275); experiment: AChE inhibition, colorimetric cholinesterase assay; type: biochemical, electric eel; conditions: mean ± S.D., n = 3
T1 construct: purchased Sigma Aldrich S.r.l., Milan, Italy Type-VI-S (catalogue number not given)
T1 sequence (O42275 24-633): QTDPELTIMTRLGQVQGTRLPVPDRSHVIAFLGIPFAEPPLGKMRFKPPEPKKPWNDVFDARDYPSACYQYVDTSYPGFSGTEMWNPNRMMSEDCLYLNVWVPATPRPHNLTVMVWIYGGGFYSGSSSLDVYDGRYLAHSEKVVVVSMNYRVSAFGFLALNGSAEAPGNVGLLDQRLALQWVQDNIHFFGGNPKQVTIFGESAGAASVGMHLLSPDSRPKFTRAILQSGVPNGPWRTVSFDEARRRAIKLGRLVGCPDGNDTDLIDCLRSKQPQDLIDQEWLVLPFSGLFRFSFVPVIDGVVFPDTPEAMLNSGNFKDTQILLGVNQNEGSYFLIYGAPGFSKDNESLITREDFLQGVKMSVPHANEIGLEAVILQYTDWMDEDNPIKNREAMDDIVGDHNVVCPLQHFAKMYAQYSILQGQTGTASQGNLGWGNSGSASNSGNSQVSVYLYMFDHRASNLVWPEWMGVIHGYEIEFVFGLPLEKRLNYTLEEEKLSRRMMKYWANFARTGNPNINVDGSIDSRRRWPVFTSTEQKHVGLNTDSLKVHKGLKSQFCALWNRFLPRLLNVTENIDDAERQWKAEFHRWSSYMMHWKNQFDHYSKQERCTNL

For `C=C(C)[C@@H]1CCC(C)=C[C@H]1c1c(O)cc(CCCCC)cc1O` [CBD, Cannabidiol], the “effect on K+ 60 mM-induced reduction in H2B level” value (histone H2B) is listed as “effective in counteracting the downregulation”, the “effect on 5-HT1A activity” value (5-HT receptor (5-HT1A)) is listed as “activated” and the “effect on K+ 60 mM-induced reduction in Syt 1 level” value (synaptotagmin-1 (Syt 1)) is listed as “blocking the downregulation”. The IC50 [1] was 1040 ± 20 µM.
For `CCCCCc1cc(O)c(C/C=C(\C)CCC=C(C)C)c(O)c1` [CBG, cannabigerol], the “effect on K+ 60 mM-induced reduction in H2B level” value (histone H2B) is given as “effective in counteracting the downregulation”, the “effect on 5-HT1A activity” value (5-HT receptor (5-HT1A)) is given as “moderately antagonized” and the “effect on K+ 60 mM-induced reduction in Syt 1 level” value (synaptotagmin-1 (Syt 1)) is given as “completely ineffective”. The IC50 [1] was 1150 ± 30 µM.
